Consider 20 compounds from patent publication US11254700B2, “GSK-3β inhibitors and use thereof in methods of treatment” (UNIVERSITY OF HAWAII, priority 2017, dated 2022).

Where only a bound is given, the exact number is not on record here.

In one data set the target is GSK-3β (Homo sapiens, UniProt P49841). Kind of data set: Kinase luminescent assay (ADP-Glo), GSK-3β inhibition. Type of data set: biochemical. The conditions noted are these: 25 μM ATP, 1 hour, room temperature; mean of quadruplicate of two experiments; read-out: IC50 against GSK-3β. Here is the method: Kinase Luminescent Assay.
GSK-3β, sequence (P49841 whole entry): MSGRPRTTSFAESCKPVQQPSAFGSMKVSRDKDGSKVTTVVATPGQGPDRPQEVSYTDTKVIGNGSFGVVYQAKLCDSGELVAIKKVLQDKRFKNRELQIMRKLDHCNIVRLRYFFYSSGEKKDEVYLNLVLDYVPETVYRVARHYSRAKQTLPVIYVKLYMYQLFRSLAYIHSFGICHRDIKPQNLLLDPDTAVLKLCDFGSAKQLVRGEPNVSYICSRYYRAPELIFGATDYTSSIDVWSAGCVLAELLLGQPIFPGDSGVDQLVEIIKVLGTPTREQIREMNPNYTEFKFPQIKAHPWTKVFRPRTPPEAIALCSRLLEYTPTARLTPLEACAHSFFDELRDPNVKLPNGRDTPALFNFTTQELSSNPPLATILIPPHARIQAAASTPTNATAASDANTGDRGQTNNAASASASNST
Kinase inhibition was assessed with the ADP-Glo Kinase Assay. […] The reaction mixture was incubated for 1 hour at room temperature followed by the addition of the ADP-Glo′ reagents according to the manufacturer's protocol. The kinase inhibitor staurosporine was used at 1 μM as a reference control. Each data point was collected in quadruplicate of two independent experiments.
Consider `CCCCNC(=O)[C@H]1O[C@@H](c2c(OC)cc3oc(-c4ccc(OC)c(OC)c4)cc(=O)c3c2OC)[C@H](O)[C@@H](O)[C@@H]1O` [Compound 10, (2S,3S,4R,5R,6S)-6-(2-(3,4-Dimethoxyphenyl)-5,7-dimethoxy-4-oxo-4H-chromen-6-yl)-3,4,5-trihydroxy-N-butyltetrahydro-2H-pyran-2-carboxamide], for which the IC50 amounted to 33.3 ± 1.1 µM.

Consider `CCCNC(=O)[C@H]1O[C@@H](c2c(OC)cc3oc(-c4ccc(OC)c(OC)c4)cc(=O)c3c2OC)[C@H](O)[C@@H](O)[C@@H]1O` [Compound 8, (2S,3S,4R,5R,6S)-6-(2-(3,4-Dimethoxyphenyl)-5,7-dimethoxy-4-oxo-4H-chromen-6-yl)-3,4,5-trihydroxy-N-propyltetrahydro-2H-pyran-2-carboxamide], for which the IC50 worked out at 29.2 ± 1.1 µM.

Take `COc1ccc(-c2cc(=O)c3c(OC)c([C@@H]4O[C@H](CO)[C@@H](O)[C@H](O)[C@H]4O)c(OC)cc3o2)cc1OC` [Compound 5, 2-(3,4-Dimethoxyphenyl)-5,7-dimethoxy-6-((2S,3R,4R,5S,6R)-3,4,5-trihydroxy-6-(hydroxymethyl)tetrahydro-2H-pyran-2-yl)-4H-chromen-4-one]: the IC50 is 239.2 ± 1.2 µM.

Turning to `O=c1cc(-c2ccc(O)c(O)c2)oc2c([C@@H]3O[C@H](CO)[C@@H](O)[C@H](O)[C@H]3O)c(O)cc(O)c12` [Compound 3, orientin, reference compound], the IC50 amounted to 5153 ± 31 µM.

Turning to `COc1ccc(-c2cc(=O)c3c(OC)c([C@@H]4O[C@H](C(=O)O)[C@@H](O)[C@H](O)[C@H]4O)c(OC)cc3o2)cc1OC` [Compound 6, (2S,3S,4R,5R,6S)-6-(2-(3,4-Dimethoxyphenyl)-5,7-dimethoxy-4-oxo-4H-chromen-6-yl)-3,4,5-trihydroxytetrahydro-2H-pyran-2-carboxylic acid], the IC50 is 237.3 ± 1.4 µM.

Take `COc1ccc(-c2cc(=O)c3c(OC)c([C@@H]4O[C@H](C(=O)NC5CCCC5)[C@@H](O)[C@H](O)[C@H]4O)c(OC)cc3o2)cc1OC` [Compound 16, (2S,3S,4R,5R,6S)—N-Cyclopentyl-6-(2-(3,4-dimethoxyphenyl)-5,7-dimethoxy-4-oxo-4H-chromen-6-yl)-3,4,5-trihydroxytetrahydro-2H-pyran-2-carboxamide]: the IC50 came to 13.1 ± 1.1 µM.

Consider `CCCCCNC(=O)[C@H]1O[C@@H](c2c(OC)cc3oc(-c4ccc(OC)c(OC)c4)cc(=O)c3c2OC)[C@H](O)[C@@H](O)[C@@H]1O` [Compound 12, (2S,3S,4R,5R,6S)-6-(2-(3,4-Dimethoxyphenyl)-5,7-dimethoxy-4-oxo-4H-chromen-6-yl)-3,4,5-trihydroxy-N-pentyltetrahydro-2H-pyran-2-carboxamide], for which the IC50 worked out at 28 ± 1.1 µM.

With `COc1ccc(-c2cc(=O)c3c(OC)c([C@@H]4O[C@H](C(=O)N[C@H](C)C(F)(F)F)[C@@H](O)[C@H](O)[C@H]4O)c(OC)cc3o2)cc1OC` [Compound 31, (2S,3S,4R,5R,6S)-6-(2-(3,4-Dimethoxyphenyl)-5,7-dimethoxy-4-oxo-4H-chromen-6-yl)-3,4,5-trihydroxy-N—((R)-1,1,1-trifluoropropan-2-yl) tetrahydro-2H-pyran-2-carboxamide], the IC50 was under 20 µM.

`COc1ccc(-c2cc(=O)c3c(OC)c([C@@H]4O[C@H](C(=O)NCC(C)C)[C@@H](O)[C@H](O)[C@H]4O)c(OC)cc3o2)cc1OC` [Compound 11, (2S,3S,4R,5R,6S)-6-(2-(3,4-Dimethoxyphenyl)-5,7-dimethoxy-4-oxo-4H-chromen-6-yl)-3,4,5-trihydroxy-N-isobutyltetrahydro-2H-pyran-2-carboxamide]: the IC50 was 31.1 ± 1.2 µM.

As for `COc1ccc(-c2cc(=O)c3c(OC)c([C@@H]4O[C@H](C(=O)Nc5nccs5)[C@@H](O)[C@H](O)[C@H]4O)c(OC)cc3o2)cc1OC` [Compound 23, (2S,3S,4R,5R,6S)-6-(2-(3,4-Dimethoxyphenyl)-5,7-dimethoxy-4-oxo-4H-chromen-6-yl)-3,4,5-trihydroxy-N-(thiazol-2-yl)tetrahydro-2H-pyran-2-carboxamide], the IC50 is 35.1 ± 1 µM.

Consider `COC(=O)[C@H]1O[C@@H](c2c(OC)cc3oc(-c4ccc(OC)c(OC)c4)cc(=O)c3c2OC)[C@H](O)[C@@H](O)[C@@H]1O` [Compound 7, Methyl (2S,3S,4R,5R,6S)-6-(2-(3,4-dimethoxyphenyl)-5,7-dimethoxy-4-oxo-4H-chromen-6-yl)-3,4,5-trihydroxytetrahydro-2H-pyran-2-carboxylate], for which the IC50 was 135 µM.

On to `CCCCCCNC(=O)[C@H]1O[C@@H](c2c(OC)cc3oc(-c4ccc(OC)c(OC)c4)cc(=O)c3c2OC)[C@H](O)[C@@H](O)[C@@H]1O` [Compound 13, (2S,3S,4R,5R,6S)-6-(2-(3,4-Dimethoxyphenyl)-5,7-dimethoxy-4-oxo-4H-chromen-6-yl)-3,4,5-trihydroxy-N-hexyltetrahydro-2H-pyran-2-carboxamide], for which the IC50 was 9.4 ± 0.9 µM.

For the compound `COc1ccc(-c2cc(=O)c3c(OC)c([C@@H]4O[C@H](C(=O)NC56CC7CC(CC(C7)C5)C6)[C@@H](O)[C@H](O)[C@H]4O)c(OC)cc3o2)cc1OC` [Compound 19, (2S,3S,4R,5R,6S)—N-(Adamantan-1-yl)-6-(2-(3,4-dimethoxyphenyl)-5,7-dimethoxy-4-oxo-4H-chromen-6-yl)-3,4,5-trihydroxytetrahydro-2H-pyran-2-carboxamide], the concentration for half-maximal inhibition (IC50) was determined as 33.5 ± 0.8 µM.

For the compound `COc1ccc(-c2cc(=O)c3c(OC)c([C@@H]4O[C@H](C(=O)NCCF)[C@@H](O)[C@H](O)[C@H]4O)c(OC)cc3o2)cc1OC` [Compound 26, (2S,3S,4R,5R,6S)-6-(2-(3,4-Dimethoxyphenyl)-5,7-dimethoxy-4-oxo-4H-chromen-6-yl)-3,4,5-trihydroxy-N-(2-fluoroethyl)tetrahydro-2H-pyran-2-carboxamide], the IC50 came to 34.8 ± 1 µM.

For `O=c1cc(-c2ccc(O)c(O)c2)oc2cc(O)cc(O)c12` [Compound 4, luteolin, reference compound], the IC50 turned out to be 3.1 µM.

Regarding `COc1ccc(-c2cc(=O)c3c(OC)c([C@@H]4O[C@H](C(=O)Nc5ccccc5)[C@@H](O)[C@H](O)[C@H]4O)c(OC)cc3o2)cc1OC` [Compound 20, (2S,3S,4R,5R,6S)-6-(2-(3,4-Dimethoxyphenyl)-5,7-dimethoxy-4-oxo-4H-chromen-6-yl)-3,4,5-trihydroxy-N-phenyltetrahydro-2H-pyran-2-carboxamide], the IC50 was 19.7 ± 1.1 µM.

Regarding `COc1ccc(-c2cc(=O)c3c(OC)c([C@@H]4O[C@H](C(=O)NC5CCC5)[C@@H](O)[C@H](O)[C@H]4O)c(OC)cc3o2)cc1OC` [Compound 15, (2S,3S,4R,5R,6S)—N-Cyclobutyl-6-(2-(3,4-dimethoxyphenyl)-5,7-dimethoxy-4-oxo-4H-chromen-6-yl)-3,4,5-trihydroxytetrahydro-2H-pyran-2-carboxamide], the IC50 was determined as 61.9 ± 1.9 µM.

With `COc1ccc(-c2cc(=O)c3c(OC)c([C@@H]4O[C@H](C(=O)NCC5CCCCC5)[C@@H](O)[C@H](O)[C@H]4O)c(OC)cc3o2)cc1OC` [Compound 18, (2S,3S,4R,5R,6S)—N-(Cyclohexylmethyl)-6-(2-(3,4-dimethoxyphenyl)-5,7-dimethoxy-4-oxo-4H-chromen-6-yl)-3,4,5-trihydroxytetrahydro-2H-pyran-2-carboxamide], the IC50 was 26 ± 1.2 µM.

Take `COc1ccc(-c2cc(=O)c3c(OC)c([C@@H]4O[C@H](C(=O)NC5CC5)[C@@H](O)[C@H](O)[C@H]4O)c(OC)cc3o2)cc1OC` [Compound 14, (2S,3S,4R,5R,6S)—N-Cyclopropyl-6-(2-(3,4-dimethoxyphenyl)-5,7-dimethoxy-4-oxo-4H-chromen-6-yl)-3,4,5-trihydroxytetrahydro-2H-pyran-2-carboxamide]: the IC50 is 25.8 ± 1.1 µM.

Staying with this data set, now noted: vs isoorientin 1.
As for `COC(=O)[C@H]1O[C@@H](c2c(OC)cc3oc(-c4ccc(OC)c(OC)c4)cc(=O)c3c2OC)[C@H](O)[C@@H](O)[C@@H]1O` [Compound 7, Methyl (2S,3S,4R,5R,6S)-6-(2-(3,4-dimethoxyphenyl)-5,7-dimethoxy-4-oxo-4H-chromen-6-yl)-3,4,5-trihydroxytetrahydro-2H-pyran-2-carboxylate], the “increase of potency against GSK-3β relative to 1” value is recorded as 1.37 fold.

Tested on in another data set: not listed separately
Kind of data set: in vitro. To be noted: PAMPA, 5 h, 20 μM, pH 7.4. How it is done: Samples were run in quadruplicate.
Oral administration is noninvasive and is preferred for chronical diseases such as Alzheimer's disease and other CNS disorders. […] In the PAMPA model, the amount of target compounds diffused from a donor compartment to an acceptor compartment through a tri-layer phospholipid pre-coated membrane are measured to assess oral-absorption potential of drug candidates. In the present study, 1, 4, 9, 17, 21 and 30 were evaluated with the PAMPA assay.
In the case of `CNCCCN1c2ccccc2CCc2ccccc21` [Desipramine, reference compound], the Pe is given as 13.43 ± 0.91 ×10^−6 cm/s and the “R (percent recovery)” value came to 96%.

On to `O=c1cc(-c2ccc(O)c(O)c2)oc2cc(O)cc(O)c12` [Compound 4, luteolin, reference compound], for which the Pe was 1.42 ± 0.07 ×10^−6 cm/s and the “R (percent recovery)” value came out at 43%.

The same data set, now with this note: PAMPA, pH 7.4.
Compound `O=c1cc(-c2ccc(O)c(O)c2)oc2cc(O)cc(O)c12` [Compound 4, luteolin, reference compound] returned a Papp at 5 h, 20 µM of 1 to 1.5 ×10⁻⁶ cm/s.
